According to publication PMC8482806, “A Novel Blood-Brain Barrier-Permeable Chemotherapeutic Agent for the Treatment of Glioblastoma” (Cureus, 2021):

Test: [14C]-QBS10072S distribution by quantitative whole-body autoradiography in mice with intracranial LN229 tumors
Format: in vivo, mouse
Details: 5 mg/kg IV
Experimental: Athymic mice with intracranial implanted LN229 cells received a single IV dose of 5 mg/kg and 200 μCi/kg [14C]-QBS10072S into the tail vein using the formulation described above. Animals (one per time point) were sacrificed one, eight, and 24 hours post-dose, and frozen in a hexane/solid carbon dioxide bath for at least 10 minutes. The carcasses were processed as described for quantitative whole-body autoradiography. Briefly, sagittal sections (~ 40 μm thick) were cut using a microtome, mounted, and exposed to a [14C]-sensitive phosphor imaging plate for four days. The images were scanned and quantitated by image densitometry using MCID image analysis software. The concentrations of radioactivity were expressed as the μg equivalents of test article per gram sample (μg equiv/g). The upper and lower limits of quantification were 550 and 0.008 μg equiv/g, respectively (QPS, Newark, DE).

## Cc1ccc(N(CCCl)C[14CH2]Cl)cc1C[C@H](N)CC(=O)O.Cl.Cl [[14C]-QBS10072S, [chloroethyl-2-14C]-QBS10072S×2HCl]
Adipose (brown), 1 h
  Tissue Concentration: 2.528 µg equiv/g tissue
Adipose (brown), 8 h
  Tissue Concentration: 0.440 µg equiv/g tissue
Adipose (brown), 24 h
  Tissue Concentration: 0.577 µg equiv/g tissue
Adipose (white), 1 h
  Tissue Concentration: 0.409 µg equiv/g tissue
Adipose (white), 8 h
  Tissue Concentration: 0.348 µg equiv/g tissue
Adipose (white), 24 h
  Tissue Concentration: 0.381 µg equiv/g tissue
Adrenal Gland, 1 h
  Tissue Concentration: 2.700 µg equiv/g tissue
Adrenal Gland, 8 h
  Tissue Concentration: 0.638 µg equiv/g tissue
Adrenal Gland, 24 h
  Tissue Concentration: 0.533 µg equiv/g tissue
Blood (cardiac), 1 h
  Tissue Concentration: 2.204 µg equiv/g tissue
Blood (cardiac), 8 h
  Tissue Concentration: 0.581 µg equiv/g tissue
Blood (cardiac), 24 h
  Tissue Concentration: 0.734 µg equiv/g tissue
Bone, 1 h
  Tissue Concentration: 0.350 µg equiv/g tissue
Bone, 8 h
  Tissue Concentration: 0.165 µg equiv/g tissue
Bone, 24 h
  Tissue Concentration: 0.065 µg equiv/g tissue
Brain (cerebellum), 1 h
  Tissue Concentration: 0.395 µg equiv/g tissue
Brain (cerebellum), 8 h
  Tissue Concentration: 0.105 µg equiv/g tissue
Brain (cerebellum), 24 h
  Tissue Concentration: 0.120 µg equiv/g tissue
Brain (cerebrum), 1 h
  Tissue Concentration: 0.469 µg equiv/g tissue
Brain (cerebrum), 8 h
  Tissue Concentration: 0.109 µg equiv/g tissue
Brain (cerebrum), 24 h
  Tissue Concentration: 0.101 µg equiv/g tissue
Brain (medulla), 1 h
  Tissue Concentration: 0.403 µg equiv/g tissue
Brain (medulla), 8 h
  Tissue Concentration: 0.081 µg equiv/g tissue
Brain (medulla), 24 h
  Tissue Concentration: 0.118 µg equiv/g tissue
Cecum (contents), 1 h
  Tissue Concentration: 3.895 µg equiv/g tissue
Cecum (contents), 8 h
  Tissue Concentration: 24.266 µg equiv/g tissue
Cecum (contents), 24 h
  Tissue Concentration: 9.502 µg equiv/g tissue
Cecum, 1 h
  Tissue Concentration: 2.419 µg equiv/g tissue
Cecum, 8 h
  Tissue Concentration: 0.924 µg equiv/g tissue
Cecum, 24 h
  Tissue Concentration: 0.655 µg equiv/g tissue
Choroid Plexus, 1 h
  Tissue Concentration: 0.815 µg equiv/g tissue
Choroid Plexus, 8 h
  Tissue Concentration: 0.159 µg equiv/g tissue
Choroid Plexus, 24 h
  Tissue Concentration: 0.186 µg equiv/g tissue
Esophagus, 1 h
  Tissue Concentration: 1.211 µg equiv/g tissue
Esophagus, 8 h
  Tissue Concentration: 0.442 µg equiv/g tissue
Esophagus, 24 h
  Tissue Concentration: 0.565 µg equiv/g tissue
Harderian Gland, 1 h
  Tissue Concentration: 3.371 µg equiv/g tissue
Harderian Gland, 8 h
  Tissue Concentration: 0.468 µg equiv/g tissue
Harderian Gland, 24 h
  Tissue Concentration: 0.329 µg equiv/g tissue
Heart, 1 h
  Tissue Concentration: 2.165 µg equiv/g tissue
Heart, 8 h
  Tissue Concentration: 0.489 µg equiv/g tissue
Heart, 24 h
  Tissue Concentration: 0.480 µg equiv/g tissue
Kidney (outer medulla), 1 h
  Tissue Concentration: 6.281 µg equiv/g tissue
Kidney (outer medulla), 8 h
  Tissue Concentration: 1.372 µg equiv/g tissue
Kidney (outer medulla), 24 h
  Tissue Concentration: 1.164 µg equiv/g tissue
Large Intestine, 1 h
  Tissue Concentration: 1.437 µg equiv/g tissue
Liver, 1 h
  Tissue Concentration: 5.522 µg equiv/g tissue
Liver, 8 h
  Tissue Concentration: 0.674 µg equiv/g tissue
Liver, 24 h
  Tissue Concentration: 0.598 µg equiv/g tissue
Lung, 1 h
  Tissue Concentration: 2.943 µg equiv/g tissue
Lung, 8 h
  Tissue Concentration: 0.684 µg equiv/g tissue
Lung, 24 h
  Tissue Concentration: 0.620 µg equiv/g tissue
Mammary Gland Region, 1 h
  Tissue Concentration: 0.485 µg equiv/g tissue
Mammary Gland Region, 8 h
  Tissue Concentration: 0.173 µg equiv/g tissue
Mammary Gland Region, 24 h
  Tissue Concentration: 0.365 µg equiv/g tissue
Ovary, 1 h
  Tissue Concentration: 2.564 µg equiv/g tissue
Ovary, 8 h
  Tissue Concentration: 0.563 µg equiv/g tissue
Ovary, 24 h
  Tissue Concentration: 0.585 µg equiv/g tissue
Pancreas, 1 h
  Tissue Concentration: 3.270 µg equiv/g tissue
Pancreas, 8 h
  Tissue Concentration: 0.546 µg equiv/g tissue
Pancreas, 24 h
  Tissue Concentration: 0.442 µg equiv/g tissue
Pituitary Gland, 1 h
  Tissue Concentration: 1.689 µg equiv/g tissue
Pituitary Gland, 8 h
  Tissue Concentration: 0.468 µg equiv/g tissue
Pituitary Gland, 24 h
  Tissue Concentration: 0.128 µg equiv/g tissue
Salivary Gland, 1 h
  Tissue Concentration: 2.429 µg equiv/g tissue
Salivary Gland, 8 h
  Tissue Concentration: 0.428 µg equiv/g tissue
Salivary Gland, 24 h
  Tissue Concentration: 0.368 µg equiv/g tissue
Skeletal Muscle, 1 h
  Tissue Concentration: 1.123 µg equiv/g tissue
Skeletal Muscle, 8 h
  Tissue Concentration: 0.602 µg equiv/g tissue
Skeletal Muscle, 24 h
  Tissue Concentration: 0.627 µg equiv/g tissue
Skin, 1 h
  Tissue Concentration: 1.496 µg equiv/g tissue
Skin, 8 h
  Tissue Concentration: 0.479 µg equiv/g tissue
Skin, 24 h
  Tissue Concentration: 0.425 µg equiv/g tissue
Spinal Cord, 1 h
  Tissue Concentration: 0.480 µg equiv/g tissue
Spinal Cord, 8 h
  Tissue Concentration: 0.100 µg equiv/g tissue
Spinal Cord, 24 h
  Tissue Concentration: 0.120 µg equiv/g tissue
Thyroid, 1 h
  Tissue Concentration: 1.802 µg equiv/g tissue
Thyroid, 8 h
  Tissue Concentration: 0.374 µg equiv/g tissue
Thyroid, 24 h
  Tissue Concentration: 0.653 µg equiv/g tissue
Tumor High, 1 h
  Tissue Concentration: 2.836 µg equiv/g tissue
Tumor High, 8 h
  Tissue Concentration: 0.575 µg equiv/g tissue
Tumor High, 24 h
  Tissue Concentration: 0.479 µg equiv/g tissue
Tumor Low, 1 h
  Tissue Concentration: 1.245 µg equiv/g tissue
Tumor Low, 8 h
  Tissue Concentration: 0.162 µg equiv/g tissue
Tumor Low, 24 h
  Tissue Concentration: 0.240 µg equiv/g tissue
Tumor, 1 h
  Tissue Concentration: 1.961 µg equiv/g tissue
Tumor, 8 h
  Tissue Concentration: 0.427 µg equiv/g tissue
Tumor, 24 h
  Tissue Concentration: 0.275 µg equiv/g tissue
Urinary Bladder (contents), 1 h
  Tissue Concentration: 206.798 µg equiv/g tissue
Urinary Bladder (contents), 8 h
  Tissue Concentration: 1.716 µg equiv/g tissue
Urinary Bladder (contents), 24 h
  Tissue Concentration: 0.811 µg equiv/g tissue
Urinary Bladder, 1 h
  Tissue Concentration: 3.914 µg equiv/g tissue
Urinary Bladder, 8 h
  Tissue Concentration: 0.821 µg equiv/g tissue
Urinary Bladder, 24 h
  Tissue Concentration: 0.485 µg equiv/g tissue
Uterus, 1 h
  Tissue Concentration: 1.849 µg equiv/g tissue
Uterus, 8 h
  Tissue Concentration: 0.563 µg equiv/g tissue
Uterus, 24 h
  Tissue Concentration: 0.511 µg equiv/g tissue
Vagina, 1 h
  Tissue Concentration: 1.337 µg equiv/g tissue
Vagina, 8 h
  Tissue Concentration: 0.640 µg equiv/g tissue
Vagina, 24 h
  Tissue Concentration: 0.629 µg equiv/g tissue
